Experimental data from US20100272853A1, “Method of Increasing the Milk and/or Meat Quantity of Silage-Fed Animals” (BASF SE, priority 2007, published 2010).

Experiments:
Type in all cases: in vivo
corn hybrids = experiment: Field trial Wisconsin 2008 with eight corn hybrids: calculated milk production per ton of harvested biomass; conditions: for Calculated milk production, Milk (kg/t): Unity, Wis., 2008
Method: (§1) Field trials were conducted as strip trials in farm fields in 2006 and 2008. A part of the field was treated with pyraclostrobin applied as Headline® whereas another part was left untreated. Headline® was applied at tassel emergence with 0.44 L/ha (110 g pyraclostrobin per ha) by aerial or ground application with a high clearance sprayer. Total spray volume was 93.5 to 187 L/ha for ground application and 18.7 to 46.7 L/ha for aerial application, respectively. Water was used as a carrier to prepare the spray mixture.
(§2) Trials were harvested using a commercial forage harvester when the corn crop reached a dry matter content of about 30 to 40%. The treated and untreated area of the field was harvested separately to gain total biomass yield (ton/acre). Subsequently, the harvested plant material was used for producing silage.
(§3) Forage samples from the harvested plants were taken from both the treated and untreated areas of the field. Samples were taken from the harvested material in the forage wagon following chopping with the commercial harvester. Multiple forage samples were taken for each of both treatments manually during harvesting in each of the trials, mixed in a larger container, and a subsample of 1.3 to 2.25 kg was taken. The subsamples were placed in plastic bags, sealed, cooled, and shipped immediately to Agsource Soil and Forage Laboratory, 106 North Cecil Street, Bonduel Wis. 54107, USA for Near Infrared Reflectance Spectroscopy (NIRS) analysis.
(§4) Typically, samples for NIRS analysis are first dried at 55 to 65° C. for 24 h to 48 h prior to analysis. A representative subsample thereof is then dried at 105° C. for another 12 h to 24 h to evaluate the dry matter content of the samples. Subsequently, the remaining sample is grinded and homogenized and again a representative subsample is used for the NIRS analysis. The NIRS analysis procedure uses a commercially available calibration to estimate the values for each quality parameter based on the spectral reflectance information gained. The calibrations are based on the near infra red reflectance spectra of samples with known quality data. The comparison of the spectra of the samples with unknown quality data with the spectra of the known samples allows calculating estimates for each quality parameter of interest.
(§5) NIRS analysis provided dry matter, crude protein, Acid Detergent Fibre (ADF), Neutral Detergent Fibre (NDF), and starch data. Calculations were included for moisture, adjusted crude protein, Total Digestible Nutrients (TDN), Net Energy for Lactation (NEL), Net Energy for Gain (NEG) and protein solubility.
(§6) The information was then entered into the MILK 2006 University of Wisconsin Corn Silage evaluation system. Calculations of the milk production, energy content and digestibility per ton of corn biomass were carried out using a calculation method described in:
(§7) a) Schwab, E. C., and R. D. Shaver. 2001: “Evaluation of corn silage nutritive value using MILK2000” (pages 21-24) in Proc. of 25th Forage Production and Use Symposium. WI Forage Council Annual Mtg. Eau Claire, Wis. b) Schwab, E. C., R. D. Shaver. J. G. Lauer, and J. G. Coors. 2003: “Estimating silage energy value and milk yield to rank corn hybrids”. J. Anim. Feed Sci. Technol. 109: 1-18. as well as in c) Undersander, D. J., W. T. Howard, and R. D. Shaver. 1993: “Milk per acre spreadsheet for combining yield and quality into a single term”. J. Prod. Ag. 6: 231 235.
Eight different corn hybrid varieties were tested in a field trial in Unity, Wis., in 2008. Trial setup, application, harvesting, sampling and quality analysis including calculation of milk production per ton followed the procedure described before. Each hybrid was either treated with pyraclostrobin as described before or untreated. The quality data was converted into milk production per ton of harvested biomass for each hybrid as described above.

corn [1] = experiment: Strip field trials Maryland 2006: corn forage quality by NIRS and MILK 2006 calculated milk production
Method: as §1, §2, §3, §4, §5, §6, §7
In 2006 a total of 16 strip trials were conducted in Queen Ann County, MD. Trial setup, treatments, application, harvesting, sampling and quality analysis including calculation of milk production per ton and per acre followed the procedure described before.

corn [2] = experiment: Strip field trials New York 2006: corn forage quality by NIRS and MILK 2006 calculated milk production
Method: as §1, §2, §3, §4, §5, §6, §7
In 2006 a total of 2 strip trials were conducted in Waterloo, N.Y. Trial setup, treatments, application, harvesting, sampling and quality analysis including calculation of milk production per ton and per acre followed the procedure described before.

corn [3] = experiment: Strip field trials Wisconsin 2006: corn forage quality by NIRS and MILK 2006 calculated milk production
Method: as §1, §2, §3, §4, §5, §6, §7
In 2006 a total of 7 strip trials were conducted in Manitowoc County, Wis. Trial setup, treatments, application, harvesting, sampling and quality analysis including calculation of milk production per ton and per acre followed the procedure described before.

[4] = Example 4.5, hybrid N27B CBLLRW
[5] = MD 2006, vs untreated part of field
[6] = average of 16 strip trials, MD 2006, 110 g pyraclostrobin per ha at tassel emergence
[7] = N.Y. 2006, vs untreated part of field
[8] = average of 2 strip trials, N.Y. 2006, 110 g pyraclostrobin per ha at tassel emergence
[9] = Wis. 2006, vs untreated part of field
[10] = average of 7 strip trials, Wis. 2006, 110 g pyraclostrobin per ha at tassel emergence

Q: For COC(=O)N(OC)c1ccccc1COc1ccn(-c2ccc(Cl)cc2)n1 [Pyraclostrobin, pyraclostrobin], which “Milk, % Difference to Untreated” value (corn hybrids; Example 4.1, hybrid DS93VT3) is on record?
A: Its value is “+9.6%”.

Q: And the “Calculated milk production, Milk (kg/t)” value (corn hybrids; Example 4.1, hybrid DS93VT3)?
A: The value was 1608 kg/t.

Q: And the “Milk, % Difference to Untreated” value (corn hybrids; Example 4.2, hybrid S4900VT)?
A: The value was “+17.5%”.

Q: And the “Calculated milk production, Milk (kg/t)” value (corn hybrids; Example 4.2, hybrid S4900VT)?
A: The value was 1581 kg/t.

Q: And the “Milk, % Difference to Untreated” value (corn hybrids; Example 4.3, hybrid 3114VT3)?
A: The value was “+7.1%”.

Q: What about the “Calculated milk production, Milk (kg/t)” value (corn hybrids; Example 4.3, hybrid 3114VT3) of the same compound?
A: The value was 1648 kg/t.

Q: And the “Milk, % Difference to Untreated” value (corn hybrids; Example 4.4, hybrid 491VT3)?
A: The value was “+10.9%”.

Q: What about the “Calculated milk production, Milk (kg/t)” value (corn hybrids; Example 4.4, hybrid 491VT3) of the same compound?
A: The value was 1643 kg/t.

Q: And the “Milk, % Difference to Untreated” value (corn hybrids; [4])?
A: The value was “+22.0%”.

Q: And the “Calculated milk production, Milk (kg/t)” value (corn hybrids; [4])?
A: Its value is 1549 kg/t.

Q: And the “Milk, % Difference to Untreated” value (corn hybrids; Example 4.6, hybrid DS93VT3)?
A: Its value is “+20.9%”.

Q: What about the “Calculated milk production, Milk (kg/t)” value (corn hybrids; Example 4.6, hybrid DS93VT3) of the same compound?
A: The value was 1600 kg/t.

Q: What about the “Milk, % Difference to Untreated” value (corn hybrids; Example 4.7, hybrid DKC48-37) of the same compound?
A: Its value is “+8.8%”.

Q: And the “Calculated milk production, Milk (kg/t)” value (corn hybrids; Example 4.7, hybrid DKC48-37)?
A: Its value is 1684 kg/t.

Q: What about the “Milk, % Difference to Untreated” value (corn hybrids; Example 4.8, hybrid DS93VT3) of the same compound?
A: Its value is “+8.3%”.

Q: What about the “Calculated milk production, Milk (kg/t)” value (corn hybrids; Example 4.8, hybrid DS93VT3) of the same compound?
A: The value was 1632 kg/t.

Q: What about the “milk production per ton of harvested corn biomass, result in words” value (corn hybrids; across the eight tested different corn hybrids) of the same compound?
A: The value was “improves the milk production per ton of harvested corn biomass”.

Q: And the “% CP, % Difference to Untreated” value (corn [1]; [5])?
A: Its value is “+6.0%”.

Q: And the “% NDFD, % Difference to Untreated” value (corn [1]; [5])?
A: Its value is “+3.9%”.

Q: And the “% Starch, % Difference to Untreated” value (corn [1]; [5])?
A: Its value is “+10.2%”.

Q: And the “Milk (kg/t), % Difference to Untreated” value (corn [1]; [5])?
A: Its value is “+5.9%”.

Q: What about the “TDN % of DM, % Difference to Untreated” value (corn [1]; [5]) of the same compound?
A: Its value is “+3.6%”.

Q: And the “% NDF, % Difference to Untreated” value (corn [1]; MD 2006, vs untreated part of field, decrease means more energy content)?
A: Its value is −4.8%.

Q: And the “in vitro 48-hour digestible NDF expressed as percent of NDF (% NDFD)” value (corn [1]; [6])?
A: The value was 60.6%.

Q: And the “neutral detergent fiber content (% NDF)” value (corn [1]; [6])?
A: Its value is 45.9%.

Q: What about the “starch content (% Starch)” value (corn [1]; [6]) of the same compound?
A: The value was 28.2%.

Q: And the “total digestible nutrients as percent of dry matter (TDN % of DM)” value (corn [1]; [6])?
A: Its value is 70.0%.

Q: What about the “calculated value for milk produced per ton of silage (Milk (kg/t))” value (corn [1]; average of 16 strip trials, MD 2006, 110 g pyraclostrobin per ha, MILK 2006 calculation) of the same compound?
A: The value was 1730 kg/t.

Q: And the “crude protein content (% CP)” value (corn [1]; average of 16 strip trials, Queen Ann County, MD, 2006, Headline 0.44 L/ha (110 g pyraclostrobin per ha) at tassel emergence)?
A: The value was 7.1%.

Q: What about the “% CP, % Difference to Untreated” value (corn [2]; [7]) of the same compound?
A: The value was “+6.0%”.

Q: And the “% Dry Matter, % Difference to Untreated” value (corn [2]; [7])?
A: Its value is −2.2%.

Q: And the “% NDFD, % Difference to Untreated” value (corn [2]; [7])?
A: The value was “+19.3%”.

Q: What about the “% Starch, % Difference to Untreated” value (corn [2]; [7]) of the same compound?
A: Its value is “+15.3%”.

Q: And the “Milk (kg/t), % Difference to Untreated” value (corn [2]; [7])?
A: The value was “+21.2%”.

Q: What about the “% NDF, % Difference to Untreated” value (corn [2]; N.Y. 2006, vs untreated part of field, decrease means more energy content) of the same compound?
A: Its value is −16.8%.

Q: What about the “crude protein content (% CP)” value (corn [2]; [8]) of the same compound?
A: Its value is 6.52%.

Q: And the “in vitro 48-hour digestible NDF expressed as percent of NDF (% NDFD)” value (corn [2]; [8])?
A: Its value is 51.30%.

Q: And the “neutral detergent fiber content (% NDF)” value (corn [2]; [8])?
A: The value was 38.18%.

Q: And the “starch content (% Starch)” value (corn [2]; [8])?
A: Its value is 42.42%.

Q: And the “calculated value for milk produced per ton of silage (Milk (kg/t))” value (corn [2]; average of 2 strip trials, N.Y. 2006, 110 g pyraclostrobin per ha, MILK 2006 calculation)?
A: Its value is 1653 kg/t.

Q: What about the “dry matter content (% Dry Matter)” value (corn [2]; average of 2 strip trials, Waterloo, N.Y., 2006, 110 g pyraclostrobin per ha at tassel emergence) of the same compound?
A: The value was 36.45%.

Q: And the “% CP, % Difference to Untreated” value (corn [3]; [9])?
A: Its value is “+4.2%”.

Q: And the “% NDFD, % Difference to Untreated” value (corn [3]; [9])?
A: Its value is “+13.2%”.

Q: What about the “% Starch, % Difference to Untreated” value (corn [3]; [9]) of the same compound?
A: The value was “+13.7%”.

Q: And the “Milk (kg/t), % Difference to Untreated” value (corn [3]; [9])?
A: Its value is “+14.0%”.

Q: And the “% ADF, % Difference to Untreated” value (corn [3]; Wis. 2006, vs untreated part of field, decrease means more digestibility)?
A: The value was −16.2%.

Q: What about the “% NDF, % Difference to Untreated” value (corn [3]; Wis. 2006, vs untreated part of field, decrease means more energy content) of the same compound?
A: Its value is −13.4%.

Q: What about the “crude protein content (% CP)” value (corn [3]; average of 7 strip trials, Manitowoc County, Wis., 2006, 110 g pyraclostrobin per ha at tassel emergence) of the same compound?
A: Its value is 7.5%.

Q: What about the “acid detergent fiber content (% ADF)” value (corn [3]; [10]) of the same compound?
A: The value was 22.2%.

Q: What about the “in vitro 48-hour digestible NDF expressed as percent of NDF (% NDFD)” value (corn [3]; [10]) of the same compound?
A: The value was 67.6%.

Q: What about the “neutral detergent fiber content (% NDF)” value (corn [3]; [10]) of the same compound?
A: The value was 39.5%.

Q: What about the “starch content (% Starch)” value (corn [3]; [10]) of the same compound?
A: The value was 37.4%.

Q: What about the “calculated value for milk produced per ton of silage (Milk (kg/t))” value (corn [3]; average of 7 strip trials, Wis. 2006, 110 g pyraclostrobin per ha, MILK 2006 calculation) of the same compound?
A: Its value is 1815 kg/t.
